Columns and labels:
DIGSA = assay: Post-emergence foliar-applied herbicidal mixtures, greenhouse, direct seeded rice weeds; format: in vivo, Digitaria sanguinalis (L.) Scop.; details: 17.5 g ae/ha
Source text: (§1) Seeds or nutlets of the desired test plant species were planted in a soil matrix prepared by mixing a loam or sandy loam soil (e.g., 28.6 percent silt, 18.8 percent clay, and 52.6 percent sand, with a pH of about 5.8 and an organic matter content of about 1.8 percent) and calcareous grit in an 80 to 20 ratio. The soil matrix was contained in plastic pots with a volume of 1 quart and a surface area of 83.6 square centimeters (cm^2). When required to ensure good germination and healthy plants, a fungicide treatment and/or other chemical or physical treatment was applied. The plants were grown for 8-22 days in a greenhouse with an approximate 14 hr photoperiod which was maintained at about 29° C. during the day and 26° C. during the night. Nutrients (Peters Excel® 15-5-15 5-Ca 2-Mg and iron chelate) were applied in the irrigation solution as needed and water was added on a regular basis. Supplemental lighting was provided with overhead metal halide 1000-Watt lamps as necessary. The plants were employed for testing when they reached the first through fourth true leaf stage.
(§2) Treatments consisted of the acid or esters of 4-amino-3-chloro-5-fluoro-6-(4-chloro-2-fluoro-3-methoxy-phenyl)pyridine-2-carboxylic acid (Compound A), each formulated as an SC (suspension concentrate), and various herbicidal components alone and in combination. Forms of compound A were applied on an acid equivalent basis.
(§3) Other herbicidal components were applied on an active ingredient basis and included the acetolactate synthase (ALS)-inhibiting herbicides halosulfuron-methyl formulated as Permit® 75 WDG, pyrazosulfuron-ethyl formulated as Agreen® WG or Sirius® G, and the VLCFA inhibiting herbicide esprocarb (technical grade material).
(§4) Treatment requirements were calculated based upon the rates being tested, the concentration of active ingredient or acid equivalent in the formulation, and a 12 mL application volume at a rate of 187 L/ha.
(§5) For treatments comprised of formulated compounds, measured amounts of compounds were placed individually in 25 mL glass vials and diluted in a volume of 1.25% (v/v) Agri-Dex® crop oil concentrated to obtain 12× stock solutions. […] Application solutions were prepared by adding an appropriate amount of each stock solution (e.g., 1 mL) and diluted to the appropriate final concentrations with the addition of 10 mL of an aqueous mixture of 1.25% (v/v) crop oil concentrate so that the final spray solutions contained 1.25+/−0.05% (v/v) crop oil concentrate.
(§6) For treatments comprised of technical compounds, weighed amounts can be placed individually in 25 mL glass vials and dissolved in a volume of 97:3 v/v acetone/DMSO to obtain 12× stock solutions. […] Application solutions can be prepared by adding an appropriate amount of each stock solution (e.g., 1 mL) and diluted to the appropriate final concentrations with the addition of 10 mL of an aqueous mixture of 1.5% (v/v) crop oil concentrate so that the final spray solutions contain 1.25% (v/v) crop oil concentrate. When technical materials are used, the concentrated stock solutions can be added to the spray solutions so that the final acetone and DMSO concentrations of the application solutions are 16.2% and 0.5%, respectively.
(§7) For treatments comprised of formulated and technical compounds, weighed amounts of the technical materials were placed individually in 25 mL glass vials and dissolved in a volume of 97:3 v/v acetone/DMSO to obtain 12× stock solutions, and measured amounts of the formulated compounds were placed individually in 25 mL glass vials and diluted in a volume of 1.5% (v/v) crop oil concentrate or water to obtain 12× stock solutions. […] Application solutions were prepared by adding an appropriate amount of each stock solution (e.g., 1 mL) and diluted to the appropriate final concentrations with the addition of an appropriate amount of an aqueous mixture of 1.5% (v/v) crop oil concentrate so that the final spray solutions contained 1.25% (v/v) crop oil concentrate. […]

LEFCH = assay: as above; format: in vivo, Leptochloa chinensis (L.) Nees; details: 35 g ae/ha
Source text: as §1, §2, §3, §4, §5, §6, §7

ECHOR = assay: In-water applied herbicidal mixtures, greenhouse, transplanted paddy rice weeds; format: in vivo, Echinochloa oryzoides (Ard.) Fritsch
Experimental: (§8) Weed seeds or nutlets of the desired test plant species were planted in puddled soil (mud) prepared by mixing a shredded, non-sterilized mineral soil (50.5 percent silt, 25.5 percent clay, and 24 percent sand, with a pH of about 7.6 and an organic matter content of about 2.9 percent) and water at a 1:1 volumetric ratio. The prepared mud was dispensed in 365 mL aliquots into 16-ounce (oz.) non-perforated plastic pots with a surface area of 86.59 square centimeters (cm^2) leaving a headspace of 3 centimeters (cm) in each pot Mud was allowed to dry overnight prior to planting or transplanting. Rice seeds were planted in Sun Gro MetroMix® 306 planting mixture, which typically has a pH of 6.0 to 6.8 and an organic matter content of about 30 percent, in plastic plug trays. Seedlings at the second or third leaf stage of growth were transplanted into 840 mL of mud contained in 32-oz. non-perforated plastic pots with a surface area of 86.59 cm^2 4 days prior to herbicide application. The paddy was created by filling the headspace of the pots with 2.5 to 3 cm of water. When required to ensure good germination and healthy plants, a fungicide treatment and/or other chemical or physical treatment was applied. The plants were grown for 4-22 days in a greenhouse with an approximate 14 hr photoperiod which was maintained at about 29′C during the day and 26° C. during the night. Nutrients were added as Osmocote® (19:6:12, N:P:K^+ minor nutrients) at 2 g per 16-oz. pot and 4 g per 32-oz. pot. Water was added on a regular basis to maintain the paddy flood, and supplemental lighting was provided with overhead metal halide 1000-Watt lamps as necessary. The plants were employed for testing when they reached the first through fourth true leaf stage.
as §2, with “(compound A)” for “(Compound A),”, “concentrate)” for “concentrate),”
(§9) Other herbicidal components were applied on an active ingredient basis and included acetolactate synthase (ALS)-inhibiting herbicides formulated as Permit® 75 WDG, pyrazosulfuron-ethyl formulated as Agreen® WG or Sirius® G, and VLCFA inhibiting herbicide esprocarb (technical grade material).
(§10) Treatment requirements for each compound or herbicidal component were calculated based upon the rates being tested, the concentration of active ingredient or acid equivalent in the formulation, an application volume of 2 mL per component per pot, and an application area of 86.59 cm^2 per pot.
(§11) For formulated compounds, a measured amount was placed in an individual 100 or 200 mL glass vial and was dissolved in a volume of 1.25% (v/v) Agri-Dex® crop oil concentrate to obtain application solutions.
(§12) For technical grade compounds, a weighed amount was placed in an individual 100 to 200 mL glass vial and was dissolved in a volume of acetone to obtain concentrated stock solutions. […] The concentrated stock solutions obtained were diluted with an equivalent volume of an aqueous mixture containing 2.5% (v/v) crop oil concentrate so that the final application solutions contained 1.25% (v/v) crop oil concentrate.
(§13) Applications were made by injecting with a pipetter appropriate amounts of the application solutions, individually and sequentially, into the aqueous layer of the paddy. Control plants were treated in the same manner with the solvent blank. Applications were made so that all treated plant material received the same concentrations of acetone and crop oil concentrate.
(§14) The treated plants and control plants were placed in a greenhouse as described above and water was added as needed to maintain a paddy flood. […]

SCPMA = assay: as above; format: in vivo
Experimental: as §8
as §2, with “(compound A)” for “(Compound A),”, “concentrate)” for “concentrate),”
as §9, §10, §11, §12, §13, §14

CCCCOC(=O)c1nc(-c2ccc(Cl)c(OC)c2F)c(F)c(N)c1Cl [Compound A n-Butyl Ester]
Visual Weed Control (%) - 20 DAA DIGSA Obs (DIGSA): 13% | Visual Weed Control (%) - 20 DAA LEFCH Obs (LEFCH): 48% | Visual Weed Control (%) - 20 DAA ECHOR Obs (ECHOR; 35 g ae/ha): 35% | Visual Weed Control (%) - 20 DAA ECHOR Obs (ECHOR; 70 g ae/ha): 40% | Visual Weed Control (%) - 20 DAA SCPMA Obs (SCPMA; 35 g ae/ha): 0% | Visual Weed Control (%) - 20 DAA SCPMA Obs (SCPMA; 70 g ae/ha): 0%
